Test results from US11878028B1 (HENAN GENUINE BIOTECH CO., LTD., priority 2023, dated 2024).

Key:
[1] = test system: human lung cancer NCI-H1975 (EGFRL858R/T790M) cell line; experiment: Anti-tumor effect of azvudine with doxitinib in NCI-H1975 subcutaneous xenograft mice (Example 2); type: in vivo, BALB/c nude mice; settings: for Tumor volume / Tumor volume on the 20th day: mean ± SEM, azvudine 1 mg/kg, doxitinib […], combination 1 + […]; for Tumor volume: in mm³
Excerpt: (§1) Animals were kept in IVC (independent ventilation system) cages (4 per cage) in SPF grade animal room. The number of animals in the cage, gender, strain, date of receipt, administration regimen, experiment number, group and date of start of the experiment were indicated on the animal information card for each cage. All cages, bedding and drinking water were sterilized before use. Cages, feed and drinking water were changed twice a week. The breeding environment and light conditions were as follows: • Temperature: 20˜26° C. • Humidity: 40˜70% • Lighting cycle: 12 hours of light, 12 hours of no light (the light was turned on at 8 am and turned off at 8 pm) • Cage: Cages were made of polycarbonate, with a volume of 325 mm×210 mm×180 mm. The bedding was corn cobs, and was changed twice a week. • Food: Experimental animals had free access to food (irradiation sterilized, dry pelleted food) throughout the whole experimental process. • Drinking water: Experimental animals can freely drink sterilized water. • Cage identification: The number of animals in the cage, gender, strain, date of receipt, • administration regimen, experiment number, group and date of start of the experiment should be indicated on the animal information card for each cage. • Animal identification: Experimental animals were identified with ear tags.
NCI-H1975 cells were cultured in RPMI 1640 medium containing 10% fetal bovine serum in a 37° C. and 5% CO2 incubator. The cells were routinely passaged once a week. When the cell saturation reached 80%-90% and the number achieved the requirement, the cells were collected, counted and inoculated.
0.1 mL (5×10^6) of NCI-H1975 cells were subcutaneously inoculated on the right back of each mouse, and the grouping administration was started when the average tumor volume reached about 154 mm 3.
The experimental index was to investigate whether tumor growth was inhibited, delayed or cured. Tumor diameter was measured with a vernier caliper twice a week or every other day. The tumor volume was calculated according to the formula of: V=0.5a×b^2, where a and b represented the long diameter and short diameter of the tumor, respectively.
The anti-tumor efficacy of the compounds was evaluated by TGI (%) or relative tumor proliferation rate T/C (%). TGI (%) reflected the inhibition rate of tumor growth.
Relative tumor proliferation rate T/C (%) was calculated according to the formula as follows: T/C %=TRTV/CRTV×100% (TRTV represented the average RTV of the treatment group; CRTV Represented the Average RTV of the Negative Control Group). Relative Tumor Volume (RTV) was calculated based on the results of measurement of tumor according to the formula of RTV=Vt/V0, where V0 represented the tumor volume measured during grouping administration (i.e. d0), and Vt represented the tumor volume obtained in a certain measurement, and TRTV and CRTV were collected from the data on the same day.
Statistical analysis included mean and standard error (SEM) of tumor volume at each time point for each group (see Table 3 for specific data). […] The comparison between two groups was analyzed by T-test, and the comparison between three or more groups was analyzed by one-way ANOVA. All data analysis was performed with Prism. p<0.05 was considered significant difference.

[2] = test system: human lung cancer NCI-H1975 (EGFRL858R/T790M) cell line; experiment: Anti-tumor effect of azvudine with osimertinib in NCI-H1975 subcutaneous xenograft mice (Example 1); type: in vivo, BALB/c nude mice; settings: for Tumor volume on the 28th day of grouping administration: day 28; for Tumor volume on the 28th day of grouping administration / Tumor weight: mean ± standard error; for Tumor weight / Tweight/Cweight: end of experiment; for Tumor weight: combination; for Tweight/Cweight: tumor weight of treatment group / solvent control group
Excerpt: as §1, with “The breeding environment and light conditions were as follows: • Temperature: 20˜26° C. • Humidity: 40˜70% • Lighting cycle: 12 hours of light, 12 hours of no light (the light was turned on at 8 am and turned off at 8 pm) • Cage: Cages were made of polycarbonate, with a volume of 325 mm×210 mm×180 mm.” left out
When the cell fusion degree of each bottle reached more than 90%, the cells were digested and resuspended in PBS. The cells were counted to reach a concentration of 5×10^7/ml by using a cell counter, and each mouse was injected with 0.1 ml of cell suspension. The 8th generation cells were inoculated subcutaneously in nude mice. When the tumor grew to about 800 mm^3, the tumor was taken out and cut into a size of 2*2*2 mm^3. The chopped tumor was inoculated on the right back of each mouse. When the average volume of the tumor measured after inoculation reached 100-120 mm^3, grouping administration was started using a random stratified grouping method according to the tumor volume and animal body weight. The lung cancer cell line model was randomly divided into 4 experimental groups with 8 mice in each group. The mice were continuously administered for 28 days after grouping.
(Ti: mean tumor volume of the treatment group on the i^th day of administration, T0: mean tumor volume of the treatment group on the 0th day of administration; Vi: mean tumor volume of the solvent control group on the i^th day of administration, V0: mean tumor volume of the solvent control group on the 0th day of administration)
At the end of the experiment, the surviving animals were euthanized, and the tumor tissue was taken, and weighed to obtain the tumor weight.

[3] = based on tumor volume on the 20th day after administration
[4] = azvudine 1 mpk, osimertinib 2.5 mpk, combination 2.5 + 1 mpk
[5] = azvudine 1 mpk, osimertinib 2.5 mpk

Compound: doxitinib
- T/C (relative tumor proliferation rate) [1, 3]: 15.77%
- TGI [1, 3]: 87.50%
- Tumor volume ([1]; day 0 after administration): 154 ± 12
- Tumor volume ([1]; day 3 after administration): 180 ± 19
- Tumor volume ([1]; day 6 after administration): 232 ± 27
- Tumor volume ([1]; day 10 after administration): 277 ± 34
- Tumor volume ([1]; day 13 after administration): 350 ± 65
- Tumor volume ([1]; day 17 after administration): 395 ± 86
- Tumor volume on the 20th day ([1]; day 20 after administration): 492 ± 109 mm3
- Tumor volume ([1]; day 20 after administration): 492 ± 109
- Tumor volume ([1]; day 24 after administration): 802 ± 220

Compound: C=CC(=O)Nc1cc(Nc2nccc(-c3cn(C)c4ccccc34)n2)c(OC)cc1N(C)CCN(C)C [Osimertinib, osimertinib]
- Tumor volume on the 28th day of grouping administration [2, 4]: 377.9 ± 90.8 mm^3
- Tumor weight [2, 5]: 716.9 ± 207.4 mg
- Tweight/Cweight [2]: 40.3%
- TGITV (tumor volume inhibition rate) ([2]; mouse, in vivo): 66.4%

Compound: [N-]=[N+]=N[C@]1(CO)O[C@@H](n2ccc(N)nc2=O)[C@@H](F)[C@@H]1O [Azvudine, azvudine]
- Effect on tumor proliferation (in words) ([2]; NCI-H1975 tumor-bearing mouse model): inhibitory effect on tumor proliferation in a dose-dependent manner
- TGITV (tumor volume inhibition rate) ([2]; after 28 days of administration, azvudine 1 mpk, osimertinib 2.5 mpk, combination 2.5 + 1 mpk): 35.7%
- TGITV (tumor volume inhibition rate) ([2]; after 28 days of administration, azvudine 1 mpk, osimertinib 2.5 mpk, combination 2.5 + 1 mpk, listed as azvudine): 35.7%
- Tumor volume on the 28th day of grouping administration [2, 4]: 628.3 ± 165.4 mm^3
- Tumor weight [2, 5]: 879.3 ± 226.9 mg
- Tweight/Cweight [2]: 49.5%
- Effect on tumor growth (in words) ([1]; NCI-H1975 xenograft tumor mouse model): inhibitory effect on tumor growth in a dose-dependent manner
- TGI [1, 3]: 54.01%
- Tumor volume ([1]; day 0 after administration): 154 ± 11
- Tumor volume ([1]; day 3 after administration): 252 ± 25
- Tumor volume ([1]; day 6 after administration): 447 ± 46
- Tumor volume ([1]; day 10 after administration): 614 ± 78
- Tumor volume ([1]; day 13 after administration): 774 ± 106
- Tumor volume ([1]; day 17 after administration): 1,102 ± 118
- Tumor volume on the 20th day ([1]; day 20 after administration): 1,396 ± 162 mm3
- Tumor volume ([1]; day 20 after administration): 1,396 ± 162
- Tumor volume ([1]; day 24 after administration): 2,382 ± 305
